According to ChEMBL document CHEMBL4002569, “Improved anticancer and antiparasitic activity of new lawsone Mannich bases” (Eur J Med Chem, 2017):
pIC50: −log10 of the molar value. Calls of active or inactive are those of the source. The rule behind the calls is not given here.

How the values were obtained:
[1] = test system: PC-3; assay: Antiproliferative activity against human PC3 cells at <10 uM after 96 hrs by MTT assay; type: functional, cell-based
[2] = test system: PC-3; assay: Antiproliferative activity against human PC3 cells at >10 to 25 uM after 96 hrs by MTT assay; type: functional, cell-based
[3] = test system: BXPC-3; assay: Antiproliferative activity against human BxPC3 cells at <10 uM after 96 hrs by MTT assay; type: functional, cell-based
[4] = test system: MDA-MB-231; assay: Antiproliferative activity against human MDA-MB-231 cells at >10 to 25 uM after 96 hrs by MTT assay; type: functional, cell-based
[5] = test system: BXPC-3; assay: Antiproliferative activity against human BxPC3 cells at >10 to 25 uM after 96 hrs by MTT assay; type: functional, cell-based
[6] = test system: MDA-MB-231; assay: Antiproliferative activity against human MDA-MB-231 cells at <10 uM after 96 hrs by MTT assay; type: functional, cell-based
[7] = test system: PC-3; assay: Antiproliferative activity against human PC3 cells at <25 uM after 96 hrs by MTT assay; type: functional, cell-based
[8] = test system: BXPC-3; assay: Antiproliferative activity against human BxPC3 cells at <25 uM after 96 hrs by MTT assay; type: functional, cell-based
[9] = test system: MDA-MB-231; assay: Antiproliferative activity against human MDA-MB-231 cells at <25 uM after 96 hrs by MTT assay; type: functional, cell-based
[10] = test system: KB-V1; assay: Antiproliferative activity against vinblastine-resistant human KBV1 cells after 72 hrs by MTT assay; type: functional, cell-based; conditions: KB-V1, 72 h
[11] = test system: 518A2; assay: Antiproliferative activity against human 518A2 cells after 72 hrs by MTT assay; type: functional, cell-based; conditions: 518A2, 72 h
[12] = test system: PANC-1; assay: Antiproliferative activity against human PANC1 cells after 72 hrs by MTT assay; type: functional, cell-based; conditions: PANC-1, 72 h
[13] = test system: HCT-116; assay: Antiproliferative activity against human HCT116 cells after 72 hrs by MTT assay; type: functional, cell-based; conditions: HCT-116, 72 h
[14] = Selectivity index, ratio of IC50 for human MCF10A cells to IC50 for human PC3 cells; type: functional
[15] = Selectivity index, ratio of IC50 for human MCF10A cells to IC50 for human BxPC3 cells; type: functional
[16] = test system: Trypanosoma brucei brucei; assay: Antitrypanosomal activity against bloodstream trypomastigote form of Trypanosoma brucei brucei 65.3 […] after 72 hrs by Alamar Blue assay; type: functional, cell-based; conditions: Trypanosoma brucei, 65.3, 72 h
[17] = test system: Entamoeba histolytica; assay: Antiamoebic activity against Entamoeba histolytica assessed as growth inhibition at 100 ug/ml after 72 hrs by trypan blue dye-based hemocytometer relative to control; type: functional; conditions: read-out: GI
[18] = test system: Entamoeba histolytica; assay: Antiamoebic activity against Entamoeba histolytica assessed as growth inhibition at 100 ug/ml after 24 hrs by trypan blue dye-based hemocytometer relative to control; type: functional; conditions: read-out: GI
[19] = test system: 518A2; assay: Induction of reactive oxygen species generation in human 518A2 cells at 0.5 uM after 24 hrs by NBT assay relative to control; type: functional
[20] = Selectivity index, ratio of IC50 for human MCF10A cells to IC50 for human MDA-MB-231 cells; type: functional
[21] = Selectivity index, ratio of IC50 for human MCF10A cells to IC50 for human PANC1 cells; type: functional
[22] = test system: Trypanosoma brucei brucei; assay: Antitrypanosomal activity against bloodstream trypomastigote form of Trypanosoma brucei brucei 65.3 assessed as decrease in parasite viability at 1 to 10 uM after 1 hr by DAPI staining-based fluorescence microscopic method; type: functional
[23] = test system: PC-3; assay: Antiproliferative activity against human PC3 cells after 96 hrs by MTT assay; type: functional, cell-based; conditions: PC-3, 96 h
[24] = test system: Entamoeba histolytica; assay: Antiamoebic activity against Entamoeba histolytica assessed as growth inhibition at 50 ug/ml after 48 hrs by trypan blue dye-based hemocytometer relative to control; type: functional; conditions: read-out: GI
[25] = test system: Trypanosoma brucei brucei; assay: Antitrypanosomal activity against bloodstream trypomastigote form of Trypanosoma brucei brucei 65.3 assessed as deformation of microtubule cytoskeleton at 1 to 10 uM after 3 to 6 hrs by DAPI staining-based fluorescence microscopic method; type: functional
[26] = test system: Entamoeba histolytica; assay: Antiamoebic activity against Entamoeba histolytica assessed as growth inhibition at 25 ug/ml after 72 hrs by trypan blue dye-based hemocytometer relative to control; type: functional; conditions: read-out: GI
[27] = test system: Entamoeba histolytica; assay: Antiamoebic activity against Entamoeba histolytica assessed as growth inhibition at 50 ug/ml after 72 hrs by trypan blue dye-based hemocytometer relative to control; type: functional; conditions: read-out: GI
[28] = test system: HeLa; assay: Cytotoxicity against human HeLa cells assessed as effect on cytoskeleton at 10 uM after 1 to 9 hrs by DAPI staining-based fluorescence microscopic method; type: cell-based
[29] = test system: Entamoeba histolytica; assay: Antiamoebic activity against Entamoeba histolytica assessed as growth inhibition at 25 ug/ml after 48 hrs by trypan blue dye-based hemocytometer relative to control; type: functional; conditions: read-out: GI
[30] = Selectivity index, ratio of IC50 for human MCF10A cells to IC50 for vinblastine-resistant human KBV1 cells; type: functional
[31] = test system: HeLa; assay: Cytotoxicity against human HeLa cells assessed as effect on cell viability at 10 uM after 1 to 9 hrs by DAPI staining-based fluorescence microscopic method
[32] = test system: Entamoeba histolytica; assay: Antiamoebic activity against Entamoeba histolytica assessed as growth inhibition at 50 ug/ml after 24 hrs by trypan blue dye-based hemocytometer relative to control; type: functional; conditions: read-out: GI
[33] = test system: MDA-MB-231; assay: Antiproliferative activity against human MDA-MB-231 cells after 96 hrs by MTT assay; type: functional, cell-based; conditions: MDA-MB-231, 96 h
[34] = test system: BXPC-3; assay: Antiproliferative activity against human BxPC3 cells after 96 hrs by MTT assay; type: functional, cell-based; conditions: BXPC-3, 96 h
[35] = test system: MCF-10A; assay: Antiproliferative activity against human MCF10A cells at 50 uM after 96 hrs by MTT assay; type: cell-based
[36] = test system: Entamoeba histolytica; assay: Antiamoebic activity against Entamoeba histolytica assessed as growth inhibition at 25 ug/ml after 24 hrs by trypan blue dye-based hemocytometer relative to control; type: functional; conditions: read-out: GI
[37] = test system: Entamoeba histolytica; assay: Antiamoebic activity against Entamoeba histolytica assessed as growth inhibition at 100 ug/ml after 48 hrs by trypan blue dye-based hemocytometer relative to control; type: functional; conditions: read-out: GI
[38] = Selectivity index, ratio of IC50 for human MCF10A cells to IC50 for human 518A2 cells; type: functional
[39] = Selectivity index, ratio of IC50 for human MCF10A cells to IC50 for human HCT116 cells; type: functional
[40] = test system: 518A2; assay: Induction of reactive oxygen species generation in human 518A2 cells at 0.1 uM after 24 hrs by NBT assay relative to control; type: functional
[41] = test system: MDA-MB-231; assay: Antiproliferative activity against human MDA-MB-231 cells at 1 to 50 uM after 96 hrs by MTT assay; type: functional, cell-based
[42] = test system: Trypanosoma brucei brucei; assay: Antitrypanosomal activity against bloodstream trypomastigote form of Trypanosoma brucei brucei 65.3 assessed as cell debris of dead and lysed parasite at 10 uM after 12 to 24 hrs by DAPI staining-based fluorescence microscopic method; type: functional
[43] = test system: PC-3; assay: Antiproliferative activity against human PC3 cells at 1 to 50 uM after 96 hrs by MTT assay; type: functional, cell-based
[44] = test system: BXPC-3; assay: Antiproliferative activity against human BxPC3 cells at 1 to 50 uM after 96 hrs by MTT assay; type: functional, cell-based
[45] = test system: Trypanosoma brucei brucei; assay: Antitrypanosomal activity against bloodstream trypomastigote form of Trypanosoma brucei brucei 65.3 assessed as decrease in parasite motility at 1 uM after 0.5 to 24 hrs by DAPI staining-based fluorescence microscopic method relative to control; type: functional
[46] = test system: Trypanosoma brucei brucei; assay: Antitrypanosomal activity against bloodstream trypomastigote form of Trypanosoma brucei brucei 65.3 assessed as deformation of microtubule cytoskeleton at 1 uM after 0.5 to 24 hrs by DAPI staining-based fluorescence microscopic method; type: functional

What does the source list for `CCCCCCCNC(C1=C(O)C(=O)c2ccccc2C1=O)c1ccc(F)c(F)c1` (stereo not given)?
growth inhibition (GI) [1]: inactive; growth inhibition (GI) [2]: Active; growth inhibition (GI) [3]: inactive; growth inhibition (GI) [4]: Active; growth inhibition (GI) [5]: Active; growth inhibition (GI) [6]: inactive

Which “growth inhibition (GI)” value [7] does the source give for `COc1cc(C(NCc2ccccn2)C2=C(O)C(=O)c3ccccc3C2=O)ccc1O` (stereo not given) here?
The value was “inactive”.

What about the “growth inhibition (GI)” value [8] of the same compound?
The value was “inactive”.

What about the “growth inhibition (GI)” value [9] of the same compound?
The value was “inactive”.

What does the source list for `O=C1C(O)=C(C(NCc2ccc(F)c(F)c2)c2ccccn2)C(=O)c2ccccc21` (stereo not given)?
pIC50 [10]: 5.81; pIC50 [11]: 5.52; pIC50 [12]: 5.11; pIC50 [13]: 5.25

What does the source list for `CCCCCCCCCCCCCCCCNC(C1=C(O)C(=O)c2ccccc2C1=O)c1ccccn1` (stereo not given)?
Ratio IC50 [14]: >75; Ratio IC50 [15]: >61; pIC50 [16]: 6.52; inhibition of growth at 100 µg/mL [17]: 82.8%; pIC50 [10]: 6.08; inhibition of growth at 100 µg/mL [18]: 77.8%; Activity [19]: Active; Ratio IC50 [20]: >46; pIC50 [11]: 5.85; Ratio IC50 [21]: >22; Activity [22]: inactive; pIC50 [23]: 6.17; inhibition of growth at 50 µg/mL [24]: 82.1%; Activity [25]: Active; inhibition of growth at 25 µg/mL [26]: 70.6%; inhibition of growth at 50 µg/mL [27]: 85.3%; Activity [28]: Non-Toxic; inhibition of growth at 25 µg/mL [29]: 66%; Ratio IC50 [30]: >60; Activity [31]: Non-Toxic; pIC50 [12]: 5.66; inhibition of growth at 50 µg/mL [32]: 66.6%; pIC50 [33]: 5.96; pIC50 [13]: 5.68; pIC50 [34]: 6.09; growth inhibition (GI) [35]: Non-Toxic; inhibition of growth at 25 µg/mL [36]: 60%; inhibition of growth at 100 µg/mL [37]: 80.9%; Ratio IC50 [38]: >35; Ratio IC50 [39]: >24; Activity [40]: 50%

With `CCCCCCCCCCCCNC(C1=C(O)C(=O)c2ccccc2C1=O)c1ccc(F)c(F)c1` (stereo not given) as the compound, how does the “growth inhibition (GI)” value [1] read?
The value was “inactive”.

What about the “growth inhibition (GI)” value [2] of the same compound?
The value was “Active”.

And the “growth inhibition (GI)” value [3]?
Its value is “inactive”.

What about the “growth inhibition (GI)” value [4] of the same compound?
The value was “Active”.

And the “growth inhibition (GI)” value [5]?
Its value is “Active”.

And the “growth inhibition (GI)” value [6]?
Its value is “inactive”.

With `O=C1C(O)=C(C(NCc2ccccn2)c2ccccn2)C(=O)c2ccccc21` (stereo not given) as the compound, how does the pIC50 [10] read?
The pIC50 was 5.06.

What about the pIC50 [11] of the same compound?
The pIC50 was 5.16.

And the pIC50 [12]?
The pIC50 was 4.75.

What about the pIC50 [13] of the same compound?
The pIC50 was 5.17.

With `N=C(N)c1ccc(OCCCCCOc2ccc(C(=N)N)cc2)cc1` [PENTAMIDINE] as the compound, how does the pIC50 [16] read?
Its pIC50 is 8.30.

What does the source list for `CCCCCCCCCCCCCCNC(C1=C(O)C(=O)c2ccccc2C1=O)c1ccccn1` (stereo not given)?
pIC50 [16]: 6.46; growth inhibition (GI) [41]: Active; pIC50 [10]: 6.37; Activity [19]: 70%; Activity [42]: Active; growth inhibition (GI) [43]: Active; growth inhibition (GI) [44]: Active; pIC50 [11]: 5.52; Activity [28]: Non-Toxic; Activity [31]: Non-Toxic; pIC50 [12]: 5.41; pIC50 [13]: 5.62; Activity [45]: Active; Activity [46]: Active; Activity [40]: 50%
